Twelve compounds from PubChem BioAssay (NCI) can be followed below.

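Cultured in 96-well plates, cells were exposed to test compound for 48 hours across five concentrations. GI50 marks 50% less growth. Definition used: TGI = concentration required for complete inhibition of growth.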 Where a SMILES comes first, the peptide text is derived from it. [ ]: non-standard residue; d: D form. pGlu = O=C1CC[CH](C(=O)O)N1; Thz = O=C(O)[CH]1CSCN1

Among the test systems are MDA-N; A549 NSCLC; MOLT-4 leukemia; NCI-H460 lung; CAKI-1 renal; UACC-257 melanoma; SN12C renal; SW-620 colon; ACHN renal; M14 melanoma.
Common to all, as to experiment: NCI anticancer screen, dose series, 48 h

As to `CCCCSC1=N/C(=C\c2ccccc2O)C(=O)N1`, the TGI in the assay with MDA-N, in the assay with A549 NSCLC, in the assay on MOLT-4 leukemia, in the assay with NCI-H460 lung, in the assay on CAKI-1 renal and in the assay with UACC-257 melanoma was greater than 100 µM throughout. Also, the TGI with SN12C renal, in the assay with SW-620 colon, in the assay with ACHN renal and with M14 melanoma was greater than 100 µM each time.
Regarding `Cc1ccc2c(c1)nc1n2C(c2c(F)cccc2F)SC1` (centres undefined), the TGI in the assay on MDA-N was greater than 100 µM; in the assay on A549 NSCLC, greater than 100 µM; in the assay with MOLT-4 leukemia, 87.4 µM; in the assay with NCI-H460 lung it was greater than 100 µM; with CAKI-1 renal it was greater than 100 µM; in the assay on UACC-257 melanoma, greater than 100 µM. Besides, the TGI in the assay on SN12C renal, in the assay with SW-620 colon, with ACHN renal and in the assay with M14 melanoma was greater than 100 µM throughout.
Consider `Cn1c(-c2ccc(C=O)o2)ccc1-c1ccc(C=O)o1`, for which the TGI in the assay with MDA-N is greater than 100 µM; in the assay with A549 NSCLC, greater than 100 µM; in the assay with MOLT-4 leukemia, 80.3 µM; in the assay on NCI-H460 lung, greater than 100 µM; with CAKI-1 renal, 36.8 µM; in the assay with UACC-257 melanoma it was greater than 100 µM. Also, the TGI with SN12C renal, in the assay on SW-620 colon, in the assay with ACHN renal and with M14 melanoma was greater than 100 µM each time.
In the case of `CC1OC(OC2C(O)COC(OC3C(C)OC(OC4C(OC(=O)[C@]56CCC(C)(C)C[C@@H]5C5=CCC7[C@@]8(C)C[C@H](O)[C@H](OC9OC(CO)C(O)C(O)C9O)[C@@](C)(CO)[C@@H]8CC[C@@]7(C)[C@]5(C)CC6)OCC(O)C4O)C(O)C3O)C2O)C(O)C(O)C1O` (some centres undefined), the TGI was determined as 42.3 µM in the assay on MDA-N; 43.6 µM in the assay with A549 NSCLC; 48.7 µM in the assay on MOLT-4 leukemia; 48.6 µM with NCI-H460 lung; 32 µM in the assay with CAKI-1 renal; 37 µM in the assay with UACC-257 melanoma. Besides, the TGI is 44.4 µM in the assay with SN12C renal, 46.5 µM with SW-620 colon, 44.3 µM in the assay with ACHN renal and 41.9 µM in the assay with M14 melanoma.
With `CCOC(=O)CNC(=O)C(CCC(=O)N(C)O)NC(=O)CCC(N)C(=O)O` (centres undefined), the TGI in the assay with MDA-N, in the assay on A549 NSCLC, with MOLT-4 leukemia, with NCI-H460 lung, in the assay on CAKI-1 renal and in the assay with UACC-257 melanoma was greater than 100 µM each time. Further, the TGI with SN12C renal, with SW-620 colon, with ACHN renal and in the assay on M14 melanoma was greater than 100 µM each time.
`COc1ccc(C(=O)/C=C/c2ccc(OCCCCCCCCCCOc3ccc(/C=C/C(=O)c4ccc(OC)cc4)cc3)cc2)cc1`: the TGI in the assay on MDA-N, in the assay on A549 NSCLC, in the assay with MOLT-4 leukemia, in the assay on NCI-H460 lung, with CAKI-1 renal and in the assay on UACC-257 melanoma was greater than 100 µM in each case. Also, the TGI with SN12C renal, with SW-620 colon, in the assay on ACHN renal and with M14 melanoma was greater than 100 µM throughout.
For `CC1C(C)(C)C23CC12C1(OCCO1)C3Br` (centres undefined), the TGI with MDA-N, in the assay with A549 NSCLC, in the assay with MOLT-4 leukemia, in the assay with NCI-H460 lung, in the assay with CAKI-1 renal and in the assay with UACC-257 melanoma was greater than 100 µM each time. In addition, the TGI in the assay with SN12C renal, in the assay on SW-620 colon, in the assay on ACHN renal and in the assay with M14 melanoma was greater than 100 µM throughout.
For `CC(=O)Nc1nc(C)c(S(=O)(=O)NC(=O)NC2NC(=O)NC2=O)s1` (centres undefined), the TGI in the assay with MDA-N, in the assay on A549 NSCLC, in the assay with MOLT-4 leukemia, in the assay on NCI-H460 lung, with CAKI-1 renal and in the assay on UACC-257 melanoma was greater than 100 µM each time. The TGI with SN12C renal, in the assay on SW-620 colon, in the assay with ACHN renal and in the assay with M14 melanoma was greater than 100 µM throughout.
In the case of `O=C1CCC(C(=O)N2CSCC2C(=O)O)N1` (centres undefined) ([pGlu]-[Thz]-OH; configuration not given here), the TGI in the assay with MDA-N, in the assay with A549 NSCLC, with MOLT-4 leukemia, with NCI-H460 lung, in the assay with CAKI-1 renal and with UACC-257 melanoma was greater than 100 µM throughout. For the same compound, the TGI in the assay on SN12C renal, with SW-620 colon, in the assay with ACHN renal and in the assay on M14 melanoma was greater than 100 µM each time.
Regarding `NS(=O)(=O)c1ccc(NC(=O)N/N=C/c2ccccc2[N+](=O)[O-])cc1`, the TGI in the assay on MDA-N was 39 µM; in the assay on A549 NSCLC, greater than 100 µM; in the assay with MOLT-4 leukemia it was greater than 100 µM; in the assay on NCI-H460 lung it was greater than 100 µM; in the assay on CAKI-1 renal, greater than 100 µM; with UACC-257 melanoma, greater than 100 µM. The TGI in the assay with SN12C renal is greater than 100 µM; in the assay with SW-620 colon, greater than 100 µM; with ACHN renal, greater than 100 µM; in the assay with M14 melanoma it was 85.3 µM.
As for `CCOP(=O)(CC(=O)C1CC1)OCC`, the TGI in the assay on MDA-N, in the assay on A549 NSCLC, in the assay with MOLT-4 leukemia, in the assay on NCI-H460 lung, in the assay with CAKI-1 renal and in the assay on UACC-257 melanoma was greater than 100 µM each time. Also, the TGI with SN12C renal, with SW-620 colon, in the assay on ACHN renal and with M14 melanoma was greater than 100 µM throughout.
Regarding `FC1(F)ON2CCc3ccccc3C2[C@H]1c1ccccc1` (some centres undefined), the GI50 in the assay with MDA-N, with A549 NSCLC, in the assay on MOLT-4 leukemia, with NCI-H460 lung, in the assay on CAKI-1 renal and in the assay with UACC-257 melanoma was greater than 100 µM throughout. The GI50 with SN12C renal, in the assay with SW-620 colon and in the assay on ACHN renal was greater than 100 µM in each case. Also, the TGI in the assay on MDA-N, in the assay on A549 NSCLC, with MOLT-4 leukemia, in the assay on NCI-H460 lung, with CAKI-1 renal and with UACC-257 melanoma was greater than 100 µM in each case. The TGI in the assay with SN12C renal, in the assay on SW-620 colon, with ACHN renal and with M14 melanoma was greater than 100 µM in each case.
